# Experimental data from ChEMBL document CHEMBL1828549, “Novel C-4'' modified azithromycin analogs with remarkably enhanced activity against erythromycin-resistant Streptococcus pneumoniae: the synthesis and antimicrobial evaluation” (2011).
# Columns and labels:
# Type in all cases: functional
# Streptococcus pneumoniae [1] = experiment: Antibacterial activity against erythromycin-susceptible Streptococcus pneumoniae ATCC 49619 by the broth microdilution method
# Streptococcus pneumoniae [2] = experiment: Antibacterial activity against erythromycin-resistant Streptococcus pneumoniae B1 expressing erm gene by the broth microdilution method
# Streptococcus pneumoniae [3] = experiment: Antibacterial activity against erythromycin-resistant Streptococcus pneumoniae A22072 expressing mef gene by the broth microdilution method
# Streptococcus pneumoniae [4] = experiment: Antibacterial activity against erythromycin-resistant Streptococcus pneumoniae AB11 expressing erm and mef gene by the broth microdilution method
# Staphylococcus aureus [5] = experiment: Antibacterial activity against erythromycin-susceptible Staphylococcus aureus ATCC 25923 by the broth microdilution method
# Staphylococcus aureus [6] = experiment: Antibacterial activity against penicillin-resistant Staphylococcus aureus by the broth microdilution method
# Staphylococcus aureus [7] = experiment: Antibacterial activity against […] Staphylococcus aureus ATCC 29213 by the broth microdilution method
Compound,MIC (Streptococcus pneumoniae [1]) [µg/mL],MIC (Streptococcus pneumoniae [2]) [µg/mL],MIC (Streptococcus pneumoniae [3]) [µg/mL],MIC (Streptococcus pneumoniae [4]) [µg/mL],MIC (Staphylococcus aureus [5]) [µg/mL],MIC (Staphylococcus aureus [6]) [µg/mL],MIC (Staphylococcus aureus [7]) [µg/mL]
CC[C@H]1OC(=O)[C@H](C)[C@@H](O[C@H]2C[C@@](C)(OC)[C@@H](OC(=O)NCCNC(=O)c3ccccc3OC)[C@H](C)O2)[C@H](C)[C@@H](O[C@@H]2O[C@H](C)C[C@H](N(C)C)[C@H]2O)[C@](C)(O)C[C@@H](C)CN(C)[C@H](C)[C@H]2OC(=O)O[C@@]21C,0.5,32,8,64,4,64,8
CC[C@H]1OC(=O)[C@H](C)[C@@H](O[C@H]2C[C@@](C)(OC)[C@@H](OC(=O)NCCNC(=O)c3ccc(OC)c(OC)c3)[C@H](C)O2)[C@H](C)[C@@H](O[C@@H]2O[C@H](C)C[C@H](N(C)C)[C@H]2O)[C@](C)(O)C[C@@H](C)CN(C)[C@H](C)[C@H]2OC(=O)O[C@@]21C,2,32,4,64,4,8,32
CC[C@H]1OC(=O)[C@H](C)[C@@H](O[C@H]2C[C@@](C)(OC)[C@@H](OC(=O)NCCNC(=O)c3ccc(C)cc3)[C@H](C)O2)[C@H](C)[C@@H](O[C@@H]2O[C@H](C)C[C@H](N(C)C)[C@H]2O)[C@](C)(O)C[C@@H](C)CN(C)[C@H](C)[C@H]2OC(=O)O[C@@]21C,1,8,0.25,16,4,4,16
CC[C@H]1OC(=O)[C@H](C)[C@@H](O[C@H]2C[C@@](C)(OC)[C@@H](OC(=O)NCCNC(=O)c3ccc(F)cc3)[C@H](C)O2)[C@H](C)[C@@H](O[C@@H]2O[C@H](C)C[C@H](N(C)C)[C@H]2O)[C@](C)(O)C[C@@H](C)CN(C)[C@H](C)[C@H]2OC(=O)O[C@@]21C,1,4,1,32,16,2,16
CC[C@H]1OC(=O)[C@H](C)[C@@H](O[C@H]2C[C@@](C)(OC)[C@@H](OC(=O)NCCNC(=O)c3ccc(Cl)cc3)[C@H](C)O2)[C@H](C)[C@@H](O[C@@H]2O[C@H](C)C[C@H](N(C)C)[C@H]2O)[C@](C)(O)C[C@@H](C)CN(C)[C@H](C)[C@H]2OC(=O)O[C@@]21C,0.5,8,1,32,4,2,16
CC[C@H]1OC(=O)[C@H](C)[C@@H](O[C@H]2C[C@@](C)(OC)[C@@H](OC(=O)NCCNC(=O)c3ccc(Br)cc3)[C@H](C)O2)[C@H](C)[C@@H](O[C@@H]2O[C@H](C)C[C@H](N(C)C)[C@H]2O)[C@](C)(O)C[C@@H](C)CN(C)[C@H](C)[C@H]2OC(=O)O[C@@]21C,0.5,2,0.25,8,1,2,4
CC[C@H]1OC(=O)[C@H](C)[C@@H](O[C@H]2C[C@@](C)(OC)[C@@H](OC(=O)NCCNC(=O)c3ccc(Cl)cc3Cl)[C@H](C)O2)[C@H](C)[C@@H](O[C@@H]2O[C@H](C)C[C@H](N(C)C)[C@H]2O)[C@](C)(O)C[C@@H](C)CN(C)[C@H](C)[C@H]2OC(=O)O[C@@]21C,0.5,16,2,64,4,4,8
CC[C@H]1OC(=O)[C@H](C)[C@@H](O[C@H]2C[C@@](C)(OC)[C@@H](OC(=O)NCCNC(=O)c3ccc([N+](=O)[O-])cc3)[C@H](C)O2)[C@H](C)[C@@H](O[C@@H]2O[C@H](C)C[C@H](N(C)C)[C@H]2O)[C@](C)(O)C[C@@H](C)CN(C)[C@H](C)[C@H]2OC(=O)O[C@@]21C,0.5,4,0.5,64,4,1,16
CC[C@H]1OC(=O)[C@H](C)[C@@H](O[C@H]2C[C@@](C)(OC)[C@@H](OC(=O)NCCCCNC(=O)c3ccc(OC)cc3)[C@H](C)O2)[C@H](C)[C@@H](O[C@@H]2O[C@H](C)C[C@H](N(C)C)[C@H]2O)[C@](C)(O)C[C@@H](C)CN(C)[C@H](C)[C@H]2OC(=O)O[C@@]21C,1,4,0.25,16,4,1,32
CC[C@H]1OC(=O)[C@H](C)[C@@H](O[C@H]2C[C@@](C)(OC)[C@@H](OC(=O)NCCCCNC(=O)c3ccccc3OC)[C@H](C)O2)[C@H](C)[C@@H](O[C@@H]2O[C@H](C)C[C@H](N(C)C)[C@H]2O)[C@](C)(O)C[C@@H](C)CN(C)[C@H](C)[C@H]2OC(=O)O[C@@]21C,2,4,0.5,16,4,32,16
